“Also recorded” adds a separate entry of the source. Marks after values point to notes of the source that are not given here.
Legend:
[1] = test system: patients with acute heart failure (AHF); assay: Patient-reported dyspnea (7-point Likert Scale, 100-mm VAS), Pre-RELAX-AHF trial; format: in vivo, human; conditions: for average improvement in dyspnea VAS over the 5 days: corresponds to AUC to Day 5; for average change in dyspnea VAS over the 14 days: corresponds to AUC to Day 14; for Dyspnea AUC Change from baseline to Day 5 (VAS; mm*hr) / Dyspnea AUC Change from baseline to Day 14 (VAS; mm*hr): mean ± SD
Method: (§1) Study Procedures. The study was approved by the relevant ethics committees, institutional review hoards and regulatory authorities, and conducted under the International Conference on Harmonization Good Clinical Practice guidelines. All patients provided informed written consent prior to participation. […] The placebo used for the study was the same solution as the diluent used to prepare the 100 μg/kg/day dose. The randomization ratio was 3:2:2:2:2, respectively, Relaxin (Corthera, San Mateo, Calif.) was manufactured using recombinant techniques and was identical to the naturally-occurring peptide hormone. By protocol, the study drug infusion was to be terminated if the patient's SBP was reduced to <100 mmHg or by >40 mmHg compared to baseline in two successive measurements, 15 minutes apart. Investigators were not prohibited from utilizing any standard medication, thought necessary to treat patients enrolled in the study, including additional vasodilators, following a 4-hour washout period during which time IV vasodilators, IV pure inotropes and meals were withheld, hemodynamic, renal, and clinical responses to 48 hours of study drug infusion were assessed.
(§2) Study Endpoints. […] 4.) Length of initial hospital stay.
Dyspnea Responses. Results are presented via the Visual Analog Score (VAS) and the Likert Score. The VAS score measures a characteristic of attitude that ranges across a continuum of values, for example, the amount of discomfort an AHF patient feels ranges across a continuum from none to an extreme amount of discomfort and/or pain including dyspnea, hypertension, high blood pressure, arrhythmia and reduced renal blood flow. From the patient's perspective this spectrum appears continuous, which the VAS captures. Operationally a VAS is usually a horizontal line, 100 mm in length, anchored by word descriptors at each end (e.g., no discomfort on one end and severe discomfort on the other end). The patients marked on the line the point that they fell represented their perception of their current state. The VAS score is determined by measuring in millimeters from the left hand end of the line to the point that the patient marks (Wewers et al., Research in Nursing and Health 13:227-236, 1990).
The Likert Score is a unidimensional sealing method known in the art, wherein the set of scale items are rated on a numerical (herein 7-point) Disagree-Agree response scale. Each patient was asked to rate each item on the response scale. The final score for the respondents on the scale is the sum of their ratings for all of the items.

[2] = test system: patients with systemic sclerosis; assay: Clinical trial of relaxin in patients with systemic sclerosis, continuous SQ infusion for six months; format: in vivo, human
Source text: Overview. Clinical trials with relaxin have also been conducted on systemic sclerosis patients, 257 human subjects who suffer from systemic sclerosis, a serious fibrotic disease, have been treated with relaxin by continuous and subcutaneous (SQ) infusion for six months. […] These findings support the hypothesis that relaxin administration was associated with balanced systemic and renal vasodilation.

[3] = test system: patients with acute heart failure (AHF); assay: In-hospital short-term outcomes (worsening heart failure, length of stay, signs of heart failure, diuretic and nitroglycerin use, body weight), Pre-RELAX-AHF trial; format: in vivo, human; conditions: for Length of Hospital Stay: mean ± SD
Method: as §1, §2

[4] = test system: patients with acute heart failure (AHF); assay: Post-discharge outcomes to Day 60 and Day 180 (death, rehospitalization), Pre-RELAX-AHF trial; conditions: for Days alive out of hospital: Day 60, mean ± SD
Method: Patient-reported dyspnea was assessed using both a standard 7-point Likert Scale and a standard 100-mm Visual Analog Scale (VAS). Assessments were performed at baseline (VaS only), 6 h, 12 h, 24 h, 48 h after initiation of drug therapy and at Days 3, 4, 5 and 14. Questionnaires were administered in the local language, and investigators received training in the standardized administration of these evaluations. Daily, serial physician-reported assessments of heart failure signs and symptoms were, conducted including jugular venous distension, rales, edema, orthopnea, and dyspnea on exertion, in-hospital worsening heart failure was defined as a physician-determined assessment based on worsening symptoms or signs of heart failure and the need for the addition or institution of IV medications or mechanical support to treat AHF. Vital status and rehospitalization information was collected by telephone at Day 30, Day 60 and (vital status only at.) Day 180. When the last enrolled patient reached Day 60, telephone contact was made with all patients who were between Day 60 and Day 180 of follow-up to complete the study.
1.) Relief of dyspnea, assessed with two complementary Instruments; (a) Change in dyspnea by Likert scale, and (b) Change from baseline by Visual Analog Scale. 2.) In-hospital worsening heart failure (WMF) to Day 5. […] 4.) Length of initial hospital stay. 5.) Days alive and out-of-hospital to Day 60. 6.) Death due to cardiovascular causes or rehospitalization for heart failure or renal failure to Day 60. 7.) Mortality due to cardiovascular causes to Day 180. In addition, serial assessments of safety were performed including vital-signs, physical examinations, adverse events and clinical laboratory evaluations.
Data are presented as means with standard deviations unless otherwise specified. Missing data were generally imputed by a last-observation-carried-forward approach. The worst observed dyspnea Likert or VAS score was carried forward from the time of death or worsening heart failure. The area under the curve representing the change in VAS score from baseline through Day 5 was computed by trapezoidal rule. For patients who died during the initial hospitalization, length of stay was imputed as the maximum observed plus 1 day (33 days). […] To control for regional variations in this relatively small study, region as a covariate or stratifying variable was prospectively pre-specified in the analyses of treatment effect. Rehospitalization and mortality rates through Day 180 were estimated using Kaplan-Meier (product-limit) methods, and groups compared using the Wald test of the treatment effect from Cox regression models, where time-to-event was censored at last patient contact for patients without the event of interest.

[5] = 30 mcg/kg/d IV 48 h, listed as relaxin
[6] = relaxin for 48 hours, AHF patients

In the case of Relaxin, the “percent moderate or marked improvement in dyspnea (Likert), sustained over 14 days” value ([1]; 30 μg/kg/day, AHF patients with SBP greater than the median, FIG. 7) is reported as “about 90%”, the “improvement in dyspnea within 6, 12 and 24 hours of administration” value ([1]; 30 μg/kg/day, FIG. 12) is reported as “statistically significant improvement in dyspnea” and the “% moderately/markedly better dyspnea at 6, 12 and 24 hrs (Likert)” value (“% moderately/markedly better dyspnea” below) ([1]; 10 mcg/kg/d IV 48 h) is reported as 27.5%. The “average improvement in dyspnea VAS over the 5 days” value ([1]; 10 mcg/kg/d IV 48 h) was 21 mm, the “average change in dyspnea VAS over the 14 days” value (from here on “average change in dyspnea VAS”) ([1]; 10 mcg/kg/d IV 48 h) was 10 mm and the “Dyspnea AUC Change from baseline to Day 5 (VAS; mm*hr)” value ([1]; 10 mcg/kg/d IV 48 h) was 2500 ± 2908 mm*hr. For the same substance, the “Dyspnea AUC Change from baseline to Day 14 (VAS; mm*hr)” value ([1]; 10 mcg/kg/d IV 48 h) was 6366 ± 10078 mm*hr, the “% moderately/markedly better dyspnea” value ([1]; 30 mcg/kg/d IV 48 h) was 40.5% and the “average improvement in dyspnea VAS over the 5 days” value ([1]; 30 mcg/kg/d IV 48 h) was 22 mm. For the same substance, the “average change in dyspnea VAS” value ([1]; 30 mcg/kg/d IV 48 h) was 25 mm, the “% moderately/markedly better dyspnea” value [1, 5] was 40.5% and the “Dyspnea AUC Change from baseline to Day 5 (VAS; mm*hr)” value ([1]; 30 mcg/kg/d IV 48 h) was 2567 ± 2898 mm*hr. For the same substance, the “Dyspnea AUC Change from baseline to Day 14 (VAS; mm*hr)” value ([1]; 30 mcg/kg/d IV 48 h) was 8214 ± 8712 mm*hr, the “Dyspnea AUC Change from baseline to Day 5 (VAS; mm*hr)” value [1, 5] was 2567±2898 mm*hr and the “Dyspnea AUC Change from baseline to Day 14 (VAS; mm*hr)” value [1, 5] was 8214±8712 mm*hr. For the same substance, the “% moderately/markedly better dyspnea” value ([1]; 100 mcg/kg/d IV 48 h) was 13.5%, the “average improvement in dyspnea VAS over the 5 days” value ([1]; 100 mcg/kg/d IV 48 h) was 21 mm and the “average change in dyspnea VAS” value ([1]; 100 mcg/kg/d IV 48 h) was 25 mm. The “Dyspnea AUC Change from baseline to Day 5 (VAS; mm*hr)” value ([1]; 100 mcg/kg/d IV 48 h) was 2486 ± 2865 mm*hr, the “Dyspnea AUC Change from baseline to Day 14 (VAS; mm*hr)” value ([1]; 100 mcg/kg/d IV 48 h) was 8227 ± 9707 mm*hr and the “% moderately/markedly better dyspnea” value ([1]; 250 mcg/kg/d IV 48 h) was 22.4%. The “average improvement in dyspnea VAS over the 5 days” value ([1]; 250 mcg/kg/d IV 48 h) was 18 mm, the “average change in dyspnea VAS” value ([1]; 250 mcg/kg/d IV 48 h) was 21 mm and the “Dyspnea AUC Change from baseline to Day 5 (VAS; mm*hr)” value ([1]; 250 mcg/kg/d IV 48 h) was 2155 ± 2338 mm*hr. For the same substance, the “Dyspnea AUC Change from baseline to Day 14 (VAS; mm*hr)” value ([1]; 250 mcg/kg/d IV 48 h) was 6856 ± 7923 mm*hr, the “time at which a beneficial effect on dyspnea was first seen” value ([1]; AHF patients with CrCl less than the median, FIG. 8) was 6 h and the “time at which a beneficial effect on dyspnea was first seen” value ([1]; AHF patients with SBP greater than the median, FIG. 7) was 6 h. The “onset of improvement in dyspnea” value ([1]; all relaxin-treated AHF patients) was ≤ 6 h, the “serum concentration at which relaxin was shown to be fully effective” value ([1]; see FIG. 6) was 3 to 6 ng/mL and the blood pressure [2] was “stable decreases in blood pressure”. For the same substance, the hypotensive events [2] was “did not experience any serious hypotensive events; also recorded: None of the patients developed hypotension during dosing”, the “predicted creatinine clearance (renal function)” value [2] was “statistically significant increase in predicted creatinine clearance; also recorded: stable improvement in renal function” and the “% of subjects at Day 5 with: JVP <6 cm” value ([3]; 10 mcg/kg/d IV 48 h) was 72.5%. The “% of subjects at Day 5 with: No edema” value ([3]; 10 mcg/kg/d IV 48 h) was 55.0%, the “% of subjects at Day 5 with: No rales” value ([3]; 10 mcg/kg/d IV 48 h) was 65.0% and the “Worsening HF through Day 5 (%)” value ([3]; 10 mcg/kg/d IV 48 h) was 20.0%. For the same substance, the “patients receiving intravenous nitroglycerin during the first 24 hours” value ([3]; 10 mcg/kg/d IV 48 h) was 10.0%, the “Length of Hospital Stay” value ([3]; 10 mcg/kg/d IV 48 h) was 10.9 ± 8.5 days and the “Median change in body weight from baseline to Day 14 [kg; median (Q1; Q3)]” value (from here on “Median change in body weight”) ([3]; 10 mcg/kg/d IV 48 h) was -2.0 kg. The “Median total IV diuretic dose from randomization to Day 5 [mg; median (Q1-Q3)]” value (from here on “Median total IV diuretic dose”) ([3]; 10 mcg/kg/d IV 48 h) was 100 mg, the “% of subjects at Day 5 with: JVP <6 cm” value ([3]; 30 mcg/kg/d IV 48 h) was 78.6% and the “% of subjects at Day 5 with: No edema” value ([3]; 30 mcg/kg/d IV 48 h) was 64.3 † %. The “% of subjects at Day 5 with: No rales” value ([3]; 30 mcg/kg/d IV 48 h) was 76.2%, the “Worsening HF through Day 5 (%)” value ([3]; 30 mcg/kg/d IV 48 h) was 11.9% and the “patients receiving intravenous nitroglycerin during the first 24 hours” value ([3]; 30 mcg/kg/d IV 48 h) was 9.5%. The “Length of Hospital Stay” value ([3]; 30 mcg/kg/d IV 48 h) was 10.2 ± 6.1 days, the “Median change in body weight” value ([3]; 30 mcg/kg/d IV 48 h) was -3.0 kg and the “Median total IV diuretic dose” value ([3]; 30 mcg/kg/d IV 48 h) was 100 mg. For the same substance, the “% of subjects at Day 5 with: JVP <6 cm” value ([3]; 100 mcg/kg/d IV 48 h) was 73.0%, the “% of subjects at Day 5 with: No edema” value ([3]; 100 mcg/kg/d IV 48 h) was 51.4 * % and the “% of subjects at Day 5 with: No rales” value ([3]; 100 mcg/kg/d IV 48 h) was 70.3%. For the same substance, the “Worsening HF through Day 5 (%)” value ([3]; 100 mcg/kg/d IV 48 h) was 13.5%, the “patients receiving intravenous nitroglycerin during the first 24 hours” value ([3]; 100 mcg/kg/d IV 48 h) was 13.5 and the “Length of Hospital Stay” value ([3]; 100 mcg/kg/d IV 48 h) was 11.1 ± 6.6 days. The “Median change in body weight” value ([3]; 100 mcg/kg/d IV 48 h) was -2.5 kg, the “Median total IV diuretic dose” value ([3]; 100 mcg/kg/d IV 48 h) was 90 + mg and the “% of subjects at Day 5 with: JVP <6 cm” value ([3]; 250 mcg/kg/d IV 48 h) was 76.6 + %. For the same substance, the “% of subjects at Day 5 with: No edema” value ([3]; 250 mcg/kg/d IV 48 h) was 61.2 † %, the “% of subjects at Day 5 with: No rales” value ([3]; 250 mcg/kg/d IV 48 h) was 71.4% and the “Worsening HF through Day 5 (%)” value ([3]; 250 mcg/kg/d IV 48 h) was 10.2%. The “patients receiving intravenous nitroglycerin during the first 24 hours” value ([3]; 250 mcg/kg/d IV 48 h) was 4.1%, the “Length of Hospital Stay” value ([3]; 250 mcg/kg/d IV 48 h) was 10.6 ± 6.6 days and the “Median change in body weight” value ([3]; 250 mcg/kg/d IV 48 h) was -2.0 kg. The “Median total IV diuretic dose” value ([3]; 250 mcg/kg/d IV 48 h) was 140 mg, the “period over which the improvements lasted” value ([3]; relaxin administered for as little as 48 hours) was 14 days and the “reduction in excessive body weight due to fluid retention, average loss” value [3, 6] was “about 1 kg”. For the same substance, the shorter hospital stays [3, 6] was ≤ 2.5 days, the “mean length of stay for the index hospitalization, shorter than for placebo” value ([3]; relaxin groups 10-250 mcg/kg/d vs placebo) was 0.9 to 1.8 days and the “estimated hazard reduction, death due to cardiovascular causes or rehospitalization due to heart failure or renal failure at day 60” value ([4]; 30 mcg/kg/d IV 48 h, vs placebo) was 87%. The “Days alive out of hospital” value ([4]; 10 mcg/kg/d IV 48 h) was 47.0 ± 13.0 days, the “Days alive out of hospital” value ([4]; 30 mcg/kg/d IV 48 h) was 47.9 ± 10.1 days and the “Days alive out of hospital” value ([4]; 100 mcg/kg/d IV 48 h) was 48 ± 10.1 days. For the same substance, the “Days alive out of hospital” value ([4]; 250 mcg/kg/d IV 48 h) was 47.6 ± 12.0 days, the “All-cause death (KM %)” value ([4]; Day 180, 10 mcg/kg/d IV 48 h) was 5.0% and the “mean number of days alive and out-of-hospital at Day 60, greater than placebo” value ([4]; relaxin-treated patients vs placebo) was “approximately 4 days”.
